≈ marks a conversion by molar mass, not a printed value.
Assays:
[1] = test system: E. coli (APH(3′)Ia); test: MIC 50, broth micro-dilution, E. coli expressing APH(3′)Ia; format: cell-based, Escherichia coli
Description: (§1) Plasmid transformation. Approximately 500 ng of the pET-9b(+) (Cat. No. 69432-3, Merck), pAT21-1 (provided by Prof. Dr. Patrice Courvalin, M.D., Pasteur Institute, France; prepared according to Trieu-Cuot et. al, Mol. Gen. Genet. 198(2), 348 (1985)), pBluescript::AAC(6′)-Ie/APH(2″)-Ia (provided by Prof. Dr. Sergei Vakulenko, M.D., University of Notre Dame, Ind., USA; prepared according to S. B. Vakulenko et. al., J. Biol. Chem. 287 (52), 43262 (2012)), pBlue_lpp_aacC3_rrnC and pSET152 (Cat. No. PVT3395, Life Science Market; prepared according to Bierman et al., Gene 116 (1), 43 (1992)) plasmids, encoding APH(3′)-Ia (SEQ ID NO:2), APH(3′)-IIIa (SEQ ID NO:3), AAC(6′)Ie-APH(2″)-Ia (SEQ ID NO:4), AAC(3)-III (SEQ ID NO:1), and AAC(3)-IV (SEQ ID NO:5) respectively, were individually incubated in a vial of competent cells for 15 min on ice. The cells were subsequently heated to 42° C. for 90 s, and cooled on ice for 1 min. After addition of 900 μL LB, the cells were incubated for 1 h at 37° C. and 200 rpm. Cells were plated on LB-agar supplemented with 50 μg/mL KanaA and incubated for 18 h at 37° C. The next day, a single colony was inoculated in 5 mL LB supplemented with 50 μg/mL and grown for 18 h at 37° C. and 200 rpm. A 200 μL sample of each culture was diluted with 200 μL of 40% v/v glycerol in water, and stored at −80° C. The plasmid was purified from the remaining culture using the Plasmid Miniprep kit. Plasmid DNA was investigated by Eurofins Genomics (Germany) to confirm the identity of the aminoglycoside resistance genes.
(§2) 3.1 Against E. coli Strains
(§3) Tested reference compounds. Amikacin sulfate (Cat. No. 01693, Chem-Impex), Gentamicin sulfate (Cat. No. G4918, Sigma Aldrich).
(§4) Microbial strains. E. coli ATCC 25922, E. coli ATCC 25922/pET-9b(+), E. coli ATCC 25922/pAT21-1, E. coli ATCC 25922/pBluescript::AAC(6′)-Ie/APH(2″)-Ia, E. coli ATCC 25922/pBlue_lpp_aacC3_rrnC, E. coli ATCC 25922/pSET152.
(§5) Culture media and equipment. BBL™ Mueller Hinton Broth 2 (Lot. BCBW1143, Cat. No. 70192, Sigma); Kanamycin A (Cat. No. A1493, AppliChem); 96-well deep well plate, 1 mL (Cat. No. 0030506.200, Eppendorf); Plate lids (Cat. No. 0030131.525, Eppendorf); 96-well plate, F-bottom (Cat. No. 781602, Brand; Incubator, Infors Multitron Pro); Laminar flow (Heraeus KS12); UV/VIS meter (Eppendorf BioPhotometer Plus); Platereader (Tecan Sunrise).
(§6) Compound preparation. Compounds were prepared in MH2 media at a concentration of 5 mM and stored at 4° C. For testing, solutions of 128 μM were prepared in MH2. Out of these working solutions, 400 μL was transferred to wells in the first column of 96-well deep well plates. Each compound was transferred in triplicate. Plates were previously filled with 200 μL of MH2 media in all wells except for the wells in the first column. After compound and antibiotic addition, the compounds were serial two-fold diluted by transferring 200 μL from the first to the second column, then from the second to the third column and so on. Finally, 200 μL was removed from the last column.
(§7) Inoculum preparation. Microorganisms used were all revived from 20% glycerol (40% v/v glycerol in water was diluted with MH2) storage at −80° C. by inoculating them in 5 mL MH2. inoculums of E. coli containing a plasmid were selected for by adding 50 μg/mL KanaA. The Inoculums were grown to an optical density (measured by UV/Vis spectroscopy) of 0.6-0.8 at 600 nm. Out of these suspensions, actual inoculums were prepared by diluting them to an optical density (OD) of 0.1 in MH2 media. From these inoculums, 200 μL was transferred to each well, resulting in a final compound concentration range of 64 μM-31.3 nM. All plates were incubated at 900 rpm and 70% rH for 18 h at 37° C.
(§8) MIC determination. After 18 h of growth, 200 μL was transferred to a 96-well F-bottom plate. The optical density was determined by a plate reader at 600 nm, with 10 s shaking before reading. Triplicate measurements were averaged, and a growth curve was plotted in Microsoft Excel. […]

[2] = test system: E. coli (AAC(6′)Ie-APH(2″)Ia); test: MIC 50, broth micro-dilution, E. coli expressing AAC(6′)Ie-APH(2″)Ia; format: cell-based, Escherichia coli
Description: as §1, §2, §3, §4, §5, §6, §7, §8

[3] = ATCC25922 harboring plasmid encoding APH(3′)Ia
[4] = ATCC25922 harboring plasmid encoding AAC(6′)Ie-APH(2″)Ia
[5] = Escherichia coli, ATCC25922, ATCC25922 harboring plasmid encoding APH(3′)Ia
[6] = Escherichia coli, ATCC25922, ATCC25922 harboring plasmid encoding AAC(6′)Ie-APH(2″)Ia

SMILES	MIC50 [1, 3] [µM]	MIC50 [2, 4] [µM]	MIC50 [1, 5] [µM]	MIC50 [2, 6] [µM]
NCC[C@H](O)C(=O)N[C@@H]1C[C@H](N)[C@@H](O[C@H]2O[C@H](CN)[C@@H](O)[C@@H](O)[C@H]2O)[C@H](O)[C@H]1O[C@H]1O[C@H](CO)[C@@H](O)[C@H](N)[C@H]1O [ABX3002, 3′Epi-KanaA-AHB]	32 (≈ 18.7 µg/mL)	16 (≈ 9.37 µg/mL)		
N=C(N)NC1[C@@H](O)C(OC2[C@@H](F)[C@H](O[C@H]3OC(CN)[C@@H](O)[C@H](O)C3O)C(N)C[C@H]2NC(=O)[C@@H](O)CCN)O[C@H](CO)[C@H]1O (stereo partly drawn) [ABX3003, 3′epi-KanaA-AHB-F-Gua]			8 (≈ 5.04 µg/mL)	2 (≈ 1.26 µg/mL)
NCCC(O)C(=O)NC1CC(N)C(OC2OC(CN)C(O)C(O)C2O)C(F)C1OC1OC(CO)C(O)C(N)C1O (stereo not drawn) [ABX3005, 3′Epi-KanaA-AHB-F]	8 to 16	4 (≈ 2.35 µg/mL)		
NCCC(O)C(=O)NC1CC(N)C(OC2OC(CN)C(O)C(O)C2N)C(O)C1OC1OC(CO)C(O)C(N)C1O (centres unmarked) [ABX4001, KanaB-AHB]	8 (≈ 4.68 µg/mL)	4 to 8		
NCC[C@H](O)C(=O)N[C@@H]1CC(N)[C@@H](O[C@H]2OC(CN)[C@@H](O)[C@@H](O)C2N)[C@H](O)C1OC1O[C@H](CO)[C@@H](O)C(N)[C@H]1O (stereo partly drawn) [ABX4002, 3′Epi-KanaB-AHB]	8 to 16	4 to 8		
NCC[C@H](O)C(=O)N[C@@H]1CC(N)[C@@H](O[C@H]2OC(CN)[C@@H](O)[C@@H](O)C2N)[C@H](F)C1OC1O[C@H](CO)[C@@H](O)C(N)[C@H]1O (stereo partly drawn) [ABX4003, 3′Epi-KanaB-AHB-F]	8 to 16	8 (≈ 4.69 µg/mL)		
N=C(N)NC1[C@@H](O)C(OC2[C@@H](F)[C@H](O[C@H]3OC(CN)[C@@H](O)[C@H](O)C3N)C(N)C[C@H]2NC(=O)[C@@H](O)CCN)O[C@H](CO)[C@H]1O (stereo partly drawn) [ABX4004, 3′epi-KanaB-AHB-F-Gua]	4 (≈ 2.51 µg/mL)	2 (≈ 1.26 µg/mL)		
N=C(N)N[C@@H]1[C@@H](O)[C@@H](O[C@@H]2[C@@H](O)[C@H](O[C@H]3O[C@H](CN)[C@@H](O)[C@@H](O)[C@H]3N)[C@@H](N)C[C@H]2NC(=O)[C@@H](O)CCN)O[C@H](CO)[C@H]1O [ABX4005, 3′Epi-KanaB-AHB-Gua]	16 (≈ 10 µg/mL)	8 (≈ 5.01 µg/mL)		
N=C(N)NC1[C@@H](O)C(OC2[C@@H](F)[C@H](O[C@H]3OC(CN)[C@@H](O)[C@H](O)C3N)C(N)C[C@H]2NC(=O)[C@@H](O)CCN)O[C@H](CO)[C@H]1O (some centres unmarked) [ABX4006, KanaB-AHB-F-Gua]	1 to 2			1 (≈ 0.629 µg/mL)
NCCC(O)C(=O)NC1CC(N)C(OC2OC(CN)C(O)C(O)C2N)C(F)C1OC1OC(CO)C(O)C(N)C1O (centres unmarked) [ABX4007, KanaB-AHB-F]	4 (≈ 2.35 µg/mL)	2 to 4		
N=C(N)NC1[C@@H](O)C(OC2[C@@H](O)[C@H](O[C@H]3OC(CN)[C@@H](O)[C@H](O)C3N)C(N)C[C@H]2NC(=O)[C@@H](O)CCN)O[C@H](CO)[C@H]1O (some centres unmarked) [ABX4009, KanaB-AHB-Gua]	8 (≈ 5.01 µg/mL)	2 to 4		
NCC[C@H](O)C(=O)N[C@@H]1CC(N)[C@@H](O[C@H]2OC(CN)[C@@H](O)CC2N)[C@H](O)C1OC1O[C@H](CO)[C@@H](O)C(N)[C@H]1O (some centres unmarked) [ABX5004, Tobra-AHB]	4 to 8	4 (≈ 2.27 µg/mL)		
N=C(N)NC1[C@@H](O)C(OC2[C@@H](O)[C@H](O[C@H]3OC(CN)[C@@H](O)CC3N)C(N)C[C@H]2NC(=O)[C@@H](O)CCN)O[C@H](CO)[C@H]1O (some centres unmarked) [ABX5005, Tobra-AHB-Gua]	2 to 4	2 (≈ 1.22 µg/mL)		
N=C(N)NC1C(O)[C@@H](CO)OC(OC2C(F)[C@H](O[C@H]3OC(CN)[C@@H](O)CC3N)C(N)C[C@H]2NC(=O)[C@@H](O)CCN)[C@@H]1O (some centres unmarked) [ABX5006, Tobra-AHB-F-Gua]			0.5 (≈ 0.306 µg/mL)	< 0.25
N=C(NCCN)NC1C(O)[C@@H](CO)OC(OC2C(F)[C@H](O[C@H]3OC(CN)[C@@H](O)CC3N)C(N)C[C@H]2NC(=O)[C@@H](O)CCN)[C@@H]1O (some centres unmarked) [ABX5020, Tobra-AHB-F-Gua-2-amino-ethyl]			1 to 2 (≈ 0.656 to 1.31 µg/mL)	0.5 (≈ 0.328 µg/mL)
NCC[C@H](O)C(=O)N[C@@H]1CC(N)[C@@H](O[C@H]2OC(CN)[C@@H](O)CC2N)[C@H](F)C1OC1O[C@H](CO)[C@@H](O)C(N)[C@H]1O (some centres unmarked) [ABX5024, Tobra-AHB-F]	2 to 4	1 (≈ 0.571 µg/mL)		
CC(C)(C)CCNC(=N)NC1[C@@H](O)C(OC2[C@@H](F)[C@H](O[C@H]3OC(CN)[C@@H](O)CC3N)C(N)C[C@H]2NC(=O)[C@@H](O)CCN)O[C@H](CO)[C@H]1O (some centres unmarked) [ABX5025, Tobra-AHB-F-Gua 2-tBu-ethyl]			1 (≈ 0.697 µg/mL)	0.5 (≈ 0.348 µg/mL)
N=C(NC[C@@H]1CCCN1)NC1[C@@H](O)C(OC2[C@@H](F)[C@H](O[C@H]3OC(CN)[C@@H](O)CC3N)C(N)C[C@H]2NC(=O)[C@@H](O)CCN)O[C@H](CO)[C@H]1O (stereo partly drawn) [ABX5026, Tobra-AHB-F-Gua (S) pyrrolidine-2-yl-methyl]			1 (≈ 0.696 µg/mL)	0.25 to 0.5 (≈ 0.174 to 0.348 µg/mL)
N=C(NCC1CC1)NC1[C@@H](O)C(OC2[C@@H](F)[C@H](O[C@H]3OC(CN)[C@@H](O)CC3N)C(N)C[C@H]2NC(=O)[C@@H](O)CCN)O[C@H](CO)[C@H]1O (some centres unmarked) [ABX5027, Tobra-AHB-F-Gua cyclopropylmethyl]			1 (≈ 0.667 µg/mL)	0.5 (≈ 0.333 µg/mL)
N=C(NCCO)NC1[C@@H](O)C(OC2[C@@H](F)[C@H](O[C@H]3OC(CN)[C@@H](O)CC3N)C(N)C[C@H]2NC(=O)[C@@H](O)CCN)O[C@H](CO)[C@H]1O (some centres unmarked) [ABX5029, Tobra-AHB-F-Gua 2-hydroxy-ethyl]			2 (≈ 1.31 µg/mL)	0.5 to 1 (≈ 0.328 to 0.657 µg/mL)
N=C(NCCCN)NC1[C@@H](O)C(OC2[C@@H](F)[C@H](O[C@H]3OC(CN)[C@@H](O)CC3N)C(N)C[C@H]2NC(=O)[C@@H](O)CCN)O[C@H](CO)[C@H]1O (some centres unmarked) [ABX5030, Tobra-AHB-F-Gua-3-amino-propyl]			2 (≈ 1.34 µg/mL)	0.25 to 0.5 (≈ 0.167 to 0.335 µg/mL)
CNCCNC(=N)NC1[C@@H](O)C(OC2[C@@H](F)[C@H](O[C@H]3OC(CN)[C@@H](O)CC3N)C(N)C[C@H]2NC(=O)[C@@H](O)CCN)O[C@H](CO)[C@H]1O (some centres unmarked) [ABX5038, Tobra-AHB-F-Gua 2-(methylamino)ethyl]			0.5 (≈ 0.335 µg/mL)	0.25 (≈ 0.167 µg/mL)

Reference: patent publication US20220127297A1, “Novel Antibacterial 3"-Derivatives Of 4,6-Disubstituted 2,5-Dideoxystreptamine Aminoglycoside Antibiotics” (AGILeBiotics B.V., priority 2018, published 2022)
